Results reported in patent publication US20240091306A1 (Dompe' Farmaceutici SPA, priority 2020, published 2024).

Legend:
aortic rings = test: Rat aortic ring assay (ex vivo); format: cell-based, Sprague-Dawley rats; details: 10 days
Description: Briefly, the dorsal aorta was excised from 6-wk-old Sprague-Dawley rats. Rings, 1-mm thick, were embedded in collagen gel and then incubated with serum-free EBM containing PBS, peptide F2 (10 ng/ml), peptide F3 (10 ng/ml), or FGF-2 (50 ng/ml) (Thermo Fisher Scientific, Rodano, Italy). The plates were incubated for 10 days and angiogenesis was quantified by counting the number of microvessels originating from aortic rings.

HUVECs [1] = test: Angiogenic activity assay on BME-coated wells, stressed HUVECs; format: cell-based, human
Description: (§1) Low passage HUVECs were grown under stressed (serum starved; 0.5% FBS) conditions for 16 h in endothelial basal medium (EBM) and then harvested and resuspended in complete medium containing 10% FBS.
(§2) Cells were seeded (5×10^4 cells per well) in wells coated with growth factor-reduced Cultrex basement membrane extract (BME; Trevigen Gaithersburg, MD, USA) and left untreated (NT) or treated with 10 ng/ml of GST, p24, p17 or each p17-derived peptide F1 to F8.
Data are the means±SD of three independent experiments with similar results.
Statistical analysis was performed by one-way ANOVA and the Bonferroni post-test was used to compare data (***P<0.001).

HUVECs [2] = test: Angiogenic activity assay with CXCR1 and CXCR2 inhibition; format: cell-based, human; details: stressed HUVECs, peptide 10 ng/ml, preincubation 1 hour with 2.5 μg/ml mAb
Description: as §1
Cells were seeded (5×10^4 cells per well) in wells coated with growth factor-reduced Cultrex basement membrane extract (BME; Trevigen Gaithersburg, MD, USA) and left untreated (NT) or treated with 10 ng/ml of each p17-derived peptide F1 or F2, after preincubation for 1 hour at 37° C. with 2.5 μg/ml of a control isotype-matched mAb (Ctrl mAb), a neutralizing mAb to CXCR1 and/or a neutralizing mAb to CXCR2.

HAECs = test: Angiogenic activity assay on HAECs; format: cell-based, human; details: HAECs (aorta)
Description: (§3) Human aortic endothelial cells (HAECs) and Human lung microvascular endothelial cells (HMVEC-Ls) were purchased from Clonetics (San Diego, CA, USA) and cultured in EGM-2MV (Lonza) containing 10% (vol/vol) FBS.
as §1, §2
(§4) Similar results were obtained by using human ECs derived from different origin, such as aorta (HAECs), lung (HMVEC-Ls) and lymph node (LN-LECs) (FIGS. 3, 4 and 5, respectively).

[3] = He W et al. 2019; cited from earlier work
HUVECs [4] = test: Angiogenic activity assay under normal and stressed condition; format: cell-based, human; details: 10 ng/ml
Description: Low passage HUVECs were grown under normal (10% FBS) or stressed (serum starved; 0.5% FBS) conditions for 16 h in endothelial basal medium (EBM) and then harvested and resuspended in complete medium containing 10% FBS. […]
An EPO-derived 11 amino acids-long peptide (EPO peptide—SEQ ID No. 10) and a F3-derived 16 amino acids-long peptide (F3S—SEQ ID No. 9) were synthetized and tested at 10 ng/ml for their angiogenic activity under the same procedure of Example 7.

CXCR1 = CXCR1 (Homo sapiens, UniProt P25024); details: He W et al. 2019; cited from earlier work
Chain of CXCR1 (P25024 whole entry): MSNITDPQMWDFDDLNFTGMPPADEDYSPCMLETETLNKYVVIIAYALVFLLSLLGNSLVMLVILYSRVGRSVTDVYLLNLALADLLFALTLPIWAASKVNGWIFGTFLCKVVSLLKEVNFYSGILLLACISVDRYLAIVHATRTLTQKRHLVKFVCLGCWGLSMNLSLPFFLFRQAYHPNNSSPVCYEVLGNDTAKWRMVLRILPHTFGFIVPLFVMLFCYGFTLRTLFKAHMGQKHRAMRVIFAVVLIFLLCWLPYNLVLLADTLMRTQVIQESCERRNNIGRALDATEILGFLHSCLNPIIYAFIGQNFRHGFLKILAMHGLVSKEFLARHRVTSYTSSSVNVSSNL

[5] = test system: chick chorioallantoic membrane (CAM); test: Chick chorioallantoic membrane (CAM) assay; format: in vivo, White Leghorn chicken; details: 100 ng on gelatin sponge, day 12
Description: The vasculogenic activity of peptide F2 and F3 was further characterized by in vivo experiments by using the chick chorioallantoic membrane (CAM) assay.
Fertilized White Leghorn chicken eggs (30 per group) were incubated at 37° C. at constant humidity. On day 3, a square window was opened in the shell, and 2-3 ml of albumin was removed to allow detachment of the developing CAM. The window was sealed with a glass, and the eggs were returned to the incubator. On day 8, eggs were treated with 1 mm 3 sterilized gelatin sponges (Gelfoam; Upjohn, Kalamazoo, MI, USA) placed on top of the growing CAM, as described in Ribatti D et al, Nat Protoc, 2006; 1:85-91, and loaded with 1 μl of PBS (negative control), 1 μl of PBS containing 100 ng of peptide F2 or F3. CAMs were examined daily until day 12 and photographed in ovo with a stereomicroscope equipped with a camera and image analyzer system (Olympus, Hamburg, Germany). At day 12, the angiogenic response was evaluated by the image analyzer system and counted as the number of vessels converging toward the sponge.

HMVEC-Ls = test: Angiogenic activity assay on HMVEC-Ls; format: cell-based, human; details: HMVEC-Ls (lung)
Description: as §3, §1, §2, §4

CXCR2 = CXCR2 (Homo sapiens, UniProt P25025); details: He W et al. 2019; cited from earlier work
Chain of CXCR2 (P25025 whole entry): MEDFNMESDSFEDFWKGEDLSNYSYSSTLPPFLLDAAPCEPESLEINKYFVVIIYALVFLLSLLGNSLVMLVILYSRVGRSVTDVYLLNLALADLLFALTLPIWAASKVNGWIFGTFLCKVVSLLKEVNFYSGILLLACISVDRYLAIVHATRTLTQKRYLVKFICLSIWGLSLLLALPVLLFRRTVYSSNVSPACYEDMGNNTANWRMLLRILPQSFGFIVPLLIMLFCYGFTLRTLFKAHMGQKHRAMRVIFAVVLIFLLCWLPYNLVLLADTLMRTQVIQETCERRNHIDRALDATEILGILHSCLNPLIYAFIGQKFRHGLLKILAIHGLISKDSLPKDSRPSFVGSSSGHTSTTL

endothelial cells = test: Involvement of autophagy-based pathway in angiogenic activity; format: cell-based
HUVECs [6] = test: Wound-healing assay (EC migration); format: cell-based, human; details: 10 ng/ml; for effect on HUVEC migration: 12 h; for healing: after 12 h of culture
Description: The involvement of peptide F2 and F3 in promoting EC migration was evaluated by performing a wound healing assay.
HUVECs were plated on 24-well plates (10^5 cells per well) in complete medium containing 10% FBS. Confluent monolayers were nutrient starved for 16 h and then scratched using a 200 μI pipette tip. After being washed, cells were left untreated or treated with 10 ng/ml of GST, p24, p17, or each p17-derived peptide F1 to F8.

LN-LECs = test: Angiogenic activity assay on LN-LECs; format: cell-based, human; details: LN-LECs (lymph node)
Description: Human primary lymph node-derived endothelial cells (LN-LECs) have been developed and characterized as described in Norder et al, FASEB J, 2012; 26:2835-2846.
LN-LECs were cultured in EGM (Lonza) containing 10% FBS and supplemented with VEGF-C (25 ng/ml) (Reliatech, Wolfenbuettel, Germany).
as §1, §2, §4

B cell = details: He W et al. 2019; cited from earlier work
[7] = test system: full-thickness excisional skin wounds; test: In vivo wound-healing assay in diabetic mice; design: species or system spontaneously diabetic (db/db) mice; details: db/db mice, topical daily, 1.0 μg/50 μL days 0 to 7 and 10 μg/50 μL days 8 to 13; days 8 to 14 (p≤0.035)
Description: Patients with diabetes are prone to impaired wound healing, with foot ulceration being particularly prevalent. This delay in wound healing also extends to animal models of diabetes. The impact of the EPO peptide (DSRVLERYLLE, corresponding to SEQ ID No. 10) on wound healing was therefore investigated by in vivo experiments on spontaneously diabetic (db/db) mice (i.e., BKS.Cg-m Dock7^m+/+Lepr^db/J mice).
In this study, the healing of full-thickness excisional skin wounds on the flanks of diabetic mice in receipt of the EPO peptide was compared to that of wounds in receipt of negative control (Water for Injection) treatment. The overall wound closure (i.e. the reduction in open wound area) was determined over time by taking scaled wound images of each wound at each assessment point.
EPO Peptide (DFL24435) was solubilized at 200 μg/mL (10 μg per 50 μL) in sterile water for injection, aliquoted into 100 μL volumes, stored at −20° C., defrosted on the day of use and diluted as necessary.
The animals were divided in a control group, that was treated with water for injection, and a EPO peptide group, that was treated with the peptide. Treatment was carried out once a day on post-wounding days 0 to 13 and the animals were sacrificed on day 14. […]

[8] = HUVECs, as example 2, 10 ng of the peptide
[9] = normal (10% FBS) culture conditions
[10] = stressed (serum starved; 0.5% FBS) conditions
[11] = HUVECs stressed (serum starved; 0.5% FBS) 16 h, 10 ng/ml

**Q.** With “FGF-2: FGF-2 (Thermo Fisher Scientific), positive control in aortic ring assay [reference compound]” as the substance, how does the “number of microvessels originating from aortic rings” value (from here on “number of microvessels originating”) (aortic rings; 50 ng/ml) read?
**A.** 84±6

**Q.** With ASRELERFLLE as the substance, how does the angiogenic activity (HUVECs [1]; [8]) read?
**A.** able to significantly promote angiogenesis

**Q.** Which angiogenic activity (HUVECs [1]; [8]) does the source give for AANELDRF [SIVcpz-derived peptide] here?
**A.** able to significantly promote angiogenesis

**Q.** With EKIRLRPGGKKKYKLKHIVW [Peptide F2] as the substance, how does the “number of microvessels originating” value (aortic rings; 10 ng/ml) read?
**A.** 55±5

**Q.** What about the “effect of neutralizing mAb to CXCR1 and CXCR2 on peptide-induced angiogenesis” value (HUVECs [2]) of the same substance?
**A.** inhibitory

**Q.** What about the angiogenic activity (HAECs) of the same substance?
**A.** potent angiogenic activity

**Q.** And the binding to heparin [3]?
**A.** capable to bind

**Q.** What about the angiogenic activity (HUVECs [4]; [9]) of the same substance?
**A.** promoting angiogenesis under stress condition only

**Q.** What about the angiogenic activity (HUVECs [4]; [10]) of the same substance?
**A.** potent angiogenic activity

**Q.** What about the “binding to CXCR1 receptor” value (CXCR1) of the same substance?
**A.** capable to bind

**Q.** And the “mean number of vessels converging toward the sponge” value [5]?
**A.** 27±4

**Q.** What about the angiogenic activity (HMVEC-Ls) of the same substance?
**A.** potent angiogenic activity

**Q.** What about the “binding to CXCR2 receptor” value (CXCR2) of the same substance?
**A.** capable to bind

**Q.** What about the “involvement of autophagy-based pathway in angiogenic activity” value (endothelial cells) of the same substance?
**A.** involves an autophagy-based pathway

**Q.** And the angiogenic activity (HUVECs [1]; [11])?
**A.** endowed with angiogenic activity

**Q.** And the “effect on HUVEC migration” value (HUVECs [6])?
**A.** comparable to that exerted by p17

**Q.** What about the healing (HUVECs [6]) of the same substance?
**A.** ~100%

**Q.** What about the angiogenic activity (LN-LECs) of the same substance?
**A.** potent angiogenic activity

**Q.** For ASRELERF (ASRELERFLLE), which angiogenic activity (HUVECs [1]; [8]) is on record?
**A.** able to significantly promote angiogenesis

**Q.** For AANELDRFLLE [SIVcpz-derived peptide], which angiogenic activity (HUVECs [1]; [8]) is on record?
**A.** able to significantly promote angiogenesis

**Q.** With ASRELERFACNPELLE [peptide gor] as the substance, how does the angiogenic activity (HUVECs [1]; [8]) read?
**A.** able to significantly promote angiogenesis

**Q.** What does the source list for “ASRELERFAVNPGLLE [Peptide F3S, F3-derived 16 amino acids-long peptide]”?
**A.** angiogenic activity (HUVECs [4]; [9]): potent angiogenic activity; angiogenic activity (HUVECs [4]; [10]): potent angiogenic activity

**Q.** For “KHIVWASRELERFAVNPGLL [Peptide F3, p17-derived 20 amino acid peptide]”, which “number of microvessels originating” value (aortic rings; 10 ng/ml) is on record?
**A.** 46±8

**Q.** What about the “effect of neutralizing mAb to CXCR1 and CXCR2 on peptide-induced angiogenesis” value (HUVECs [2]) of the same substance?
**A.** did not impair

**Q.** And the angiogenic activity (HAECs)?
**A.** potent angiogenic activity

**Q.** And the angiogenic activity (HUVECs [4]; [9])?
**A.** promote angiogenesis

**Q.** What about the angiogenic activity (HUVECs [4]; [10]) of the same substance?
**A.** potent angiogenic activity

**Q.** What about the “mean number of vessels converging toward the sponge” value [5] of the same substance?
**A.** 30±3

**Q.** What about the angiogenic activity (HMVEC-Ls) of the same substance?
**A.** potent angiogenic activity

**Q.** And the “involvement of autophagy-based pathway in angiogenic activity” value (endothelial cells)?
**A.** independent from autophagy

**Q.** What about the angiogenic activity (HUVECs [1]; [11]) of the same substance?
**A.** endowed with angiogenic activity

**Q.** What about the “effect on HUVEC migration” value (HUVECs [6]) of the same substance?
**A.** comparable to that exerted by p17

**Q.** And the healing (HUVECs [6])?
**A.** ~100%

**Q.** And the angiogenic activity (LN-LECs)?
**A.** potent angiogenic activity

**Q.** Which results are given for “glutathione S-transferase [GST, reference compound]”?
**A.** angiogenic activity (HUVECs [1]; [11]): did not induce any pro-angiogenic activity; effect on HUVEC migration (HUVECs [6]): did not exert any effect

**Q.** Which “B cell growth promoting activity” value (B cell) does the source give for “GARASVLSGGELDRWEKIRL [Peptide F1, p17-derived peptide, aminoacids 2 to 21 of p17]” here?
**A.** endowed with cell growth promoting activity

**Q.** Which angiogenic activity (HUVECs [1]; [8]) does the source give for ASRELERFACNPGLME [peptide cpz] here?
**A.** able to significantly promote angiogenesis

**Q.** Which “wound closure (reduction in open wound area) compared to vehicle” value [7] does the source give for “DSRVLERYLLE [EPO peptide, EPO-derived 11 amino acids-long peptide]” here?
**A.** significantly increased closure

**Q.** What about the angiogenic activity (HUVECs [4]; [9]) of the same substance?
**A.** potent angiogenic activity

**Q.** And the angiogenic activity (HUVECs [4]; [10])?
**A.** potent angiogenic activity
